According to publication PMC9403717, “Ruthenium complexes show potent inhibition of AKR1C1, AKR1C2, and AKR1C3 enzymes and anti-proliferative action against chemoresistant ovarian cancer cell line” (Frontiers in Pharmacology, 2022):
Positions count from the first letter of the chain named. Like-named read-outs stand apart in the source and are kept apart here.

How the values were obtained:
AKR1C2 [1] = target: T1, AKR1C2 (Homo sapiens, UniProt P52895); set-up: method as in Bauman et al., 2005; conditions: ref Bauman et al., 2005; cited from earlier work
T1 construct: made in house
T1 sequence (P52895 1-323): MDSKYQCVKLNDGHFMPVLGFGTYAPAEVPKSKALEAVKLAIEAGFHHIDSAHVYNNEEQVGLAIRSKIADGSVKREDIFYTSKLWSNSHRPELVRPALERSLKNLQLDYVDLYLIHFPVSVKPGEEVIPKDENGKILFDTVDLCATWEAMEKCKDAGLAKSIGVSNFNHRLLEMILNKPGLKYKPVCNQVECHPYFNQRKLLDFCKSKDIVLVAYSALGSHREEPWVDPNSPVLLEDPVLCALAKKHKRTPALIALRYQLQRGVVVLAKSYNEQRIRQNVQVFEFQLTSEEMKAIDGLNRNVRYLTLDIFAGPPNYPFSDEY

COV362 cells [2] = test: Cell migration assay (Ibidi culture inserts), COV362; format: cell-based, human; conditions: 100 μM, 24 and 48 h
Experimental: Cell migration assay was performed using Ibidi® three-well culture inserts. The inserts were placed in six-well plates. In total, 70 µL of cell suspension was seeded in the inserts and allowed to adhere and grow for 24 h. When the cells formed a confluent monolayer, the inserts were carefully removed and the cells were washed two times with DPBS. Cells were treated with 100 μM (final concentration) of compounds 8, 9, cisplatin, and carboplatin in 2 ml of growth medium. Cells treated with a medium containing the same volume of sterile water or DMSO were used as the controls. Images of cell gaps were taken with Axio Scope A1 Polarized Light Microscope (Zeiss) at the time of treatment, 24 and 48 h after, and analyzed using ImageJ software.

OVCAR-4 cells = test: Cell proliferation assay (alamarBlue), OVCAR-4; format: cell-based, human; conditions: OVCAR-4; 48 h incubation
Experimental: (§1) The cell line COV362 (CVCL_2,420) was originally established from a high-grade ovarian serous adenocarcinoma from a metastatic site in the pleural effusion ([van den Berg-Bakker et al., 1993]) and was purchased from ECACC (ECACC 07071910) as p37 on 13 October 2017. The growth medium for COV362 cells was DMEM (D5546; Sigma–Aldrich GmbH), with 10% FBS (F9665; Sigma–Aldrich GmbH) and 2 mM L-glutamine (G7513; Sigma–Aldrich GmbH). COV362 cells in passages p37 + 12 to p37 + 17 were used in this study and seeded at a concentration of 3.5 cells/ml × 10^4 cells/ml for proliferation studies and at a concentration of 5.3 × 10^5/ml for migration studies. The cell line OVCAR-4 (CVCL_1,627) is a high-grade serous ovarian adenocarcinoma cell line established from a patient refractory to cisplatin ([Johnson et al., 1997]). The cell line was purchased from Merck on 19 March 2021. The growth medium for OVCAR-4 cells was RPMI-1640 (Sigma R5586) supplemented with 2 mM glutamine (G7513; Sigma–Aldrich GmbH), 10% FBS (F9665; Sigma–Aldrich GmbH), 0.25 μg/ml insulin (I9278; Sigma–Aldrich GmbH). OVCAR-4 cells in passages p+6 to p+15 were used in this study and seeded at a concentration of 6 cells/ml × 10^4 cells/ml. The control cell line HIO80 (CVCL_E274) was obtained from Andrew K. Godwin (University of Kansas Medical Center, Kansas, United States) on 20 October 2017 as p+72. It was originally established from ovarian surface epithelium ([Yang et al., 2004]). HIO80 cells were grown in RPMI medium (R5886, Sigma–Aldrich GmbH) supplemented with 10% FBS (F9665; Sigma–Aldrich GmbH), 2 mm L-glutamine (G7513; Sigma–Aldrich GmbH) and 6.6 µg/ml insulin (I9278; Sigma–Aldrich GmbH). HIO80 cells in passages p72 + 8 to p72 + 19 were used in this study and seeded at a concentration of 2 × 10^4 cells/mL. HIO80 in passage +10 was authenticated by short tandem repeats (STR) profiling performed by ATCC on 22 February 2019. Cells were grown in a humidified atmosphere containing 5% CO2 at 37°C. All cell lines were negative for mycoplasma infection which was periodically tested using MycoAlert^TM mycoplasma detection kit (Lonza, Basel, Switzerland).
(§2) The effect of ruthenium compounds on the proliferation of ovarian cancer cell lines COV362 and OVCAR-4 and the control cell line HIO80 was analyzed using the cell proliferation reagent alamarBlue HS (A50101; Thermo Fisher Scientific) following the manufacturer’s instructions.
(§3) Cells were seeded in 96-well plates in 100 µL of medium and allowed to adhere and grow for 24 h. […] Cisplatin and carboplatin purchased from Sigma–Aldrich GmbH (cat. number: PHR1624, lot: LRAB7778) and (cat. number: C2538, lot: MKCK1243) were dissolved in sterile water. Working solutions were prepared by a serial dilution of stock solutions with a culture medium. After the initial incubation, cells were treated with ruthenium complexes, cisplatin, and carboplatin. A range of final concentrations between 0.001 and 300 µM were used for ruthenium complexes and cisplatin, and between 0.001 µM and 1 mM for carboplatin. After 48 h of incubation, plates were incubated with 20 µL of alamarBlue. After 4 h absorbance was measured with a BioTek microplate spectrophotometer at 570 nm, with the reference wavelength set at 600 nm. First, the background value of a well containing the active substance without cells was subtracted, then the average values for duplicates/triplicates were calculated. The absorbance of the well containing only untreated cells was used as a normalization control. The half-maximal […] concentration (IC50) was determined for all ruthenium complexes with a growth-inhibiting effect on cells by constructing a dose-response curve (Graph Pad Prism, Version 8.0).

COV362 cells [3] = test: Cell proliferation assay (alamarBlue), chemoresistant ovarian cancer cell line COV362; format: cell-based, human; conditions: for IC50: 48 h incubation
Experimental: as §1, §2, §3

HIO80 cells = test: Cell proliferation assay (alamarBlue), control cell line HIO80; format: cell-based, human; conditions: 48 h incubation
Experimental: as §1, §2, §3

AKR1C3 [4] = target: T2, AKR1C3 (Homo sapiens, UniProt P42330); test: Inhibition of recombinant AKR1C3, oxidation of 1-acenaphthenol, progress-curve analysis; format: biochemical; conditions: AKR1C3
T2 construct: made in house
T2 sequence (P42330 1-323): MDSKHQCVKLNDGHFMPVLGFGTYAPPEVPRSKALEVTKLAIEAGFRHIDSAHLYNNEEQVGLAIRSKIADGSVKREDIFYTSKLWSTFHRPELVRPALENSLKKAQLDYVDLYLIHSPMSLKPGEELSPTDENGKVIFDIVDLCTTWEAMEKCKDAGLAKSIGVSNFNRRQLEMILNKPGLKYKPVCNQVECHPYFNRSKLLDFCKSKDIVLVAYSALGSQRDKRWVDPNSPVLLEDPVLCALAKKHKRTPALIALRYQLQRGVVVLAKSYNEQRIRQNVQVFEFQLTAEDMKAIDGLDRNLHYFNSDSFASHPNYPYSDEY
Experimental: (§4) To investigate the effect of ten selected ruthenium compounds, we measured their effect on the time course of oxidation of the artificial substrate 1-acenaphtenol by recombinant enzymes AKR1C1–3. The recombinant enzymes AKR1C1–AKR1C3 were prepared as described previously ([Brozic et al., 2006]). Since the artificial substrate is racemic, the oxidation follows a double exponential pattern as described previously ([Traven et al., 2015]). The in vitro catalytic activity of AKR1C1–3 enzymes was determined spectrophotometrically by monitoring the increase in NADH absorbance at 340 nm (ε(λ340) = 6220 M^−1cm^−1) in the presence of the substrate 1-acenaphthenol. Enzymatic reactions (300 µL) were performed in 100 mm potassium phosphate buffer (pH 9.0), 0.005% (v/v) TritonX-114, 5% (v/v) DMSO, containing 2.3 mm NAD^+ and 1-acenaphthenol at final concentrations of 90, 180, and 250 µM for AKR1C1, AKR1C2, and AKR1C3, respectively. A total of 5 µL of a tested compound in DMSO was added to the reaction mixture. The final concentrations of the tested compounds ranged from 1 to 200 μM, depending on the extent of inhibition (Supplementary Data). The reaction was started by adding 15 µL of AKR1C1, AKR1C2, or AKR1C3 dissolved in 1x PBS (pH 7.3) at final concentrations of 0.11, 0.16, and 1.5 µM, respectively. AKR1C1–3 activity was measured at 37°C for 3 h without shaking using a PowerWave XS microplate reader (Biotek; Winooski, VT, United States). Measurements at seven different concentrations were performed in duplicates or triplicates (Supplementary Figures S2). To mechanistically explain all the obtained progress curves for each ruthenium complex on each enzyme by a common reaction scheme, we extended the originally proposed scheme so that the interaction of the ruthenium complex with apo- and holoenzyme was allowed to be rapid and followed by a slow irreversible association of a second ruthenium complex molecule. However, the affinity of the Ru complexes for the apoenzymes was much lower so this part was excluded from the proposed kinetic model for clarity (Figure 4).
(§5) FIGURE 4 Reaction scheme for the oxidation of 1-acenaphtenol by AKR1C1-3 and its inhibition by ruthenium compounds. E represents apoenzyme, E-NAD and E-NADH represent holoenzyme with bound NAD^+ and NADH, respectively. A and B are enantiomers of substrate 1-acenaphtenol. Symbols which include I (ruthenium compound) represent holoenzyme in complex with one or two inhibitor molecules. KNAD, KNADH, and K2-3 are equilibrium constants and k+2–3 are second-order association rate constants for the binding of the second inhibitor molecule to the enzyme. The progress curves for each enzyme in the presence of ruthenium complexes were analyzed by the WEB server ENZO (https://enzo.cmm.ki.si/) designed exactly for such purposes ([Bevc et al., 2011]).

AKR1C1 = target: T3, AKR1C1 (Homo sapiens, UniProt Q04828); test: Inhibition of recombinant AKR1C1, oxidation of 1-acenaphthenol, progress-curve analysis; format: biochemical
T3 construct: made in house
T3 sequence (Q04828 1-323): T1 sequence (P52895 1-323) with V38T, H47R, V54L, S87C, M151V, H170R, L172Q
Experimental: as §4, §5

AKR1C2 [5] = target: T1, AKR1C2; test: Inhibition of recombinant AKR1C2, oxidation of 1-acenaphthenol, progress-curve analysis; format: biochemical; conditions: AKR1C2
Experimental: as §4, §5

AKR1C3 [6] = target: T2, AKR1C3; set-up: method as in Traven et al., 2015; conditions: ref Traven et al., 2015; cited from earlier work
AKR1C3 [7] = target: T2, AKR1C3; set-up: method as in Qiu et al., 2007; conditions: ref Qiu et al., 2007; cited from earlier work
MCF-7 = conditions: ref Kljun et al., 2016; cited from earlier work
[8] = irreversible binding of second inhibitor molecule to E-NAD-I
[9] = reversible binding to holoenzyme E-NAD, read-out: K2

In the case of C[C@H](CCC(=O)O)[C@H]1CC[C@H]2[C@@H]3CC[C@@H]4CC(=O)CC[C@]4(C)[C@H]3CC[C@]12C [5β-cholanic acid-3-one], the Ki (AKR1C2 [1]) is listed as 0.021 µM.

For N.N.O=C([O-])C1(C(=O)[O-])CCC1.[Pt+2] [Carboplatin, reference compound], the “effect on cell migration (in words)” value (COV362 cells [2]) was “Significant cell migration was observed”, the IC50 (OVCAR-4 cells) was 73 µM and the IC50 (COV362 cells [3]) was 272 µM. The IC50 (HIO80 cells) was 131 µM.

With N.N.[Cl][Pt][Cl] [Cisplatin, reference compound] the IC50 (OVCAR-4 cells) was 4.16 µM, the IC50 (COV362 cells [3]) was 13.6 µM and the IC50 (HIO80 cells) was 6.96 µM.

For Oc1c(I)cc(Cl)c2cccnc12 [Clioquinol, reference compound], the “fold lower IC50 value compared to Ru-pta complex 8” value (COV362 cells [3]) was 1.9 fold and the IC50 (COV362 cells [3]; Homo sapiens) was 20.1 µM.

In the case of CN(C)c1ccc(C(=O)C=C([O][Ru+][PH]23CN4CN(CN(C4)C2)C3)C(F)(F)F)cc1.Cc1ccc(C(C)C)cc1.F[P-](F)(F)(F)(F)F [Compound 4, (η^6-p-cymene)(4,4,4-trifluoro-1-(4-(dimethylamino)phenyl)-1,3-butandionato)(pta)ruthenium(II) hexafluorophosphate], the “k+2” value (AKR1C3 [4]; [8]) is reported as 1.8 M⁻¹ s⁻¹, the Ki (AKR1C3 [4]; [9]) is reported as 441 µM and the “k+2” value (AKR1C1; [8]) is reported as 1.4 M⁻¹ s⁻¹. For the same compound, the Ki (AKR1C1; [9]) was 86.9 µM, the “k+2” value (AKR1C2 [5]; [8]) was 1.9 M⁻¹ s⁻¹ and the Ki (AKR1C2 [5]; [9]) was 340 µM.

For Cc1ccc(C(C)C)cc1.Cc1ccc(C(C)C)cc1.[Cl][Ru][Cl].[Cl][Ru][Cl] [Compound P1, [(η^6-p-cymene)RuCl(μ-Cl)]2], the “Ki values (in words)” value (AKR1C3 [6]) is given as “nM Ki values”.

For CC1(C)CC[C@@]2(CC[C@H]3[C@@H]4CCc5cc(C(N)=O)ccc5[C@H]4CC[C@@]32C)OC1=O [EM1404], the Ki (AKR1C3 [7]) is given as 0.0069 µM.

In the case of O=[N+]([O-])c1ccc(O)c2ncccc12 [Nitroxoline, reference compound], the “fold lower IC50 compared to Ru-chlorido complex 9” value (COV362 cells [3]) is reported as 4 fold and the IC50 (COV362 cells [3]; Homo sapiens) is reported as 6.6 µM.

Cc1ccc(C(C)C)cc1.[Cl][Ru]([Cl])[PH]12CN3CN(CN(C3)C1)C2 [RAPTA-C, reference compound] showed an IC50 (COV362 cells [3]) greater than 300 µM.

In the case of [O-][n+]1ccccc1S [pyrithione], the “IC50 values (in words)” value (MCF-7) is given as “low µM”.
